Literature values as cited in patent publication US20110098303A1, “Method of promoting nail growth using thyromimetic compounds” (priority 2002, published 2011).

What was measured:
nail growth = conditions: in vivo
AGA mouse = conditions: topical treatment

SMILES	rate of nail growth (nail growth)	effect on testosterone induced alopecia (AGA mouse)	hair growth (mice; administered locally, directly to the skin)	growth of hair (mice; systemically administered)
N[C@@H](Cc1ccc(O)c(O)c1)C(=O)O [I-dopa]	accelerate the rate of nail growth	–	–	–
N[C@@H](Cc1cc(I)c(Oc2ccc(O)c(I)c2)c(I)c1)C(=O)O [T3, 3,5,3′-triiodo-L-thyronine]	–	inhibitory effect	dramatic acceleration of hair growth	inhibits the growth of hair
O=C(O)CCCC[C@@H]1SC[C@@H]2NC(=O)N[C@@H]21 [biotin]	accelerate the rate of nail growth	–	–	–
N[C@@H](CSSC[C@H](N)C(=O)O)C(=O)O [cystine]	accelerate the rate of nail growth	–	–	–
CSCC[C@H](N)C(=O)O [methionine]	accelerate the rate of nail growth	–	–	–
